Data as given in patent US4250176A, “Piperazine derivatives” (priority 1979, dated 1981).
Converted amounts (≈) assume the structure as drawn. Counter-ions that a name gives are not always drawn. Like-named read-outs stand apart in the source and are kept apart here.

Columns and labels:
[1] = test system: Guinea pigs sensitized to ovalbumin (anaphylactic shock); assay: Anaphylaxis in guinea pigs: protection against death after ovalbumin challenge (survival); assay type: in vivo, guinea pig; details: Cavia porcellus, estimated ED50, oral, protection against death after i.v. 0.6 mg ovalbumin, read-out: Anaphylaxis in guinea pigs oral effective dose in mg/kg: Survival
Procedure: The anti-anaphylactic and antihistaminic effects of the subject compounds (I) and salts thereof are studied "in vivo" in guinea pigs.
(§1) Guinea pigs, weighing between 400 and 500 g, are sensitized to ovalbumin by subplantar (s.p.) injection of 0.05 ml of antiserum in the left hind paw. The animals are then starved and orally treated, 24 hours after the sensitization, with saline (=control animals) or a particular dose of the compound under investigation.
The histamine injection (at a dose of 50 μg) was given s.p. in the right hind paw 2 hours after the oral pretreatment with the compound. The diameters of both hind paws are first measured before the histamine injection is given and again 10 minutes thereafter. The animals are challenged intravenously with 0.6 mg of ovalbumin 30 minutes after the histamine injection. All control animals develop typical primary anaphylactic shock symptoms (coughing, difficult breathing, convulsions) and 85% of these control animals die within 15 minutes after the ovalbumin injection. Protection against death is used as the criterion for possible drug effects and the estimated ED50 -value, i.e. the oral dose whereby the protection is observed in 50% of the guinea pigs, is listed in the tables below.

[2] = test system: histamine paw oedema in guinea pigs; assay: Histamine paw oedema in guinea pigs; assay type: in vivo, guinea pig; details: Cavia porcellus, oral dose giving paw reaction below 10 units 10 minutes after 50 μg histamine s.p., 2 hours after dosing, read-out: Anaphylaxis in guinea pigs oral effective dose in mg/kg: Histamine oedema
Procedure: as §1, with “investigation. The histamine injection (at a dose of 50 μg) was given s.p. in the right hind paw 2 hours after the oral pretreatment with the compound.” for “investigation.”

[3] = test system: Guinea-pig ileum strips, histamine-induced contraction; assay: Anti-histamine activity in "vitro": histamine-induced spasms of guinea-pig ileum strips; assay type: cell-based; details: Cavia porcellus, 5 min, histamine 0.5 mg/liter, 5 minutes incubation, concentration giving significant inhibition (50%) of the contraction
Procedure: The histamine--(0.5 mg/liter) induced spasms are recorded Kymographically with an isotonic lever giving a 5-fold magnification.

[4] = Table I-b, read-out: Histamine in "vitro" (ileum) effective conc.
[5] = Table I-a, read-out: Histamine in "vitro" (ileum) effective conc.
[6] = Table I-d, read-out: Histamine in "vitro" (ileum) effective dose

| SMILES | ED50 ([1]; Table I-b) [mg/kg] | minimal effective dose ([2]; Table I-b) [mg/kg] | IC50 [3, 4] [mg/L] | ED50 ([1]; Table I-a) [mg/kg] | minimal effective dose ([2]; Table I-a) [mg/kg] | IC50 [3, 5] [mg/L] | further results |
| --- | --- | --- | --- | --- | --- | --- | --- |
| Clc1ccc(C(c2ccccc2)N2CCN(CCCn3cnc4ccccc43)CC2)cc1 (stereo not drawn) [I-b: M=H, R1=H, (CH2)3, R6=4-Cl, R7=H, 1-[3-{4-[(4-chlorophenyl)phenylmethyl]-1-piperazinyl}propyl]-1H-benzimidazole] | 0.08 | 0.31 | 0.01 (≈ 0.0225 µM) |  |  |  |  |
| O=C(O)Cn1c(=O)n(CCCN2CCN(C(c3ccccc3)c3ccccc3)CC2)c2ccccc21 [3-{3-[4-(diphenylmethyl)-1-piperazinyl]-propyl}-2,3-dihydro-2-oxo-1H-benzimidazole-1-acetic acid hemihydrate] |  |  |  | < 2.5 | < 2.5 | 0.08 |  |
| O=c1[nH]c2ccccc2n1CCCCN1CCN(C(c2ccccc2)c2ccccc2)CC1 [I-a: L=H, R1=H, R2=H, (CH2)4, R6=H, R7=H, 1-{4-[4-(diphenylmethyl)-1piperazinyl]butyl}-1,3-dihydro-2H-benzimidazol-2-one] |  |  |  | 0.16 | 0.31 | 0.01 (≈ 0.0227 µM) |  |
| O=c1[nH]c2ccccc2n1CCCN1CCC(OC(c2ccc(F)cc2)c2ccc(F)cc2)CC1 [1-[3-{4-[bis(4-fluorophenyl)methoxy]-1-piperidinyl}propyl]-1,3-dihydro-2H-benzimidazol-2-one hydrochloride.hemihydrate] |  |  |  |  |  |  | ED50 ([1]; Table I-d): 0.63 mg/kg; minimal effective dose ([2]; Table I-d): 0.63 mg/kg; IC50 [3, 6]: 0.0025 mg/L |
| O=c1[nH]c2ccccc2n1CCCN1CCN(C(c2ccc(F)cc2)c2cccnc2)CC1 (stereo not drawn) [I-e: Ar1=4-FC6H4, Ar2=3-pyridinyl, 1-[3-{4-[(4-fluorophenyl)(3-pyridinyl)methyl]-1-piperazinyl}propyl]-1,3-dihydro-2H-benzimidazol-2-one] |  |  |  |  |  |  | ED50 ([1]; Table I-e): < 2.5 mg/kg; minimal effective dose ([2]; Table I-e): < 2.5 mg/kg; IC50 ([3]; Table I-e, read-out: Histamine in "vitro" (ileum) effective dose): 0.08 mg/L (≈ 0.18 µM) |
| O=c1[nH]c2ccccc2n1CCCN1CCN(C(c2ccccc2)c2ccc(Cl)cc2)CC1 (stereo not drawn) [1-[3-{4-[α-(4-chlorophenyl)-α-phenylmethyl]-1-piperazinyl}propyl]-1,3-dihydro-2H-benzimidazol-2-one] |  |  |  | 1.25 | 0.63 | 0.01 (≈ 0.0217 µM) |  |
| Fc1ccc(C(c2ccccc2)N2CCN(CCCCn3cnc4ccccc43)CC2)cc1 (stereo not drawn) [I-b: M=H, R1=H, (CH2)4, R6=4-F, R7=H, 1-[4-{4-[(4-fluorophenyl)phenylmethyl]-1-piperazinyl}butyl]-1H-benzimidazole] | 0.08 | 0.16 | 0.005 (≈ 0.0113 µM) |  |  |  |  |
| Cc1nc2ccccc2n1CCCN1CCN(C(c2ccccc2)c2ccccc2)CC1 [I-b: M=CH3, R1=H, (CH2)3, R6=H, R7=H, 1-{3-[4-(diphenylmethyl)-1-piperazinyl]propyl}-2-methyl-1H-benzimidazole] | 2.5 | 2.5 | 0.02 (≈ 0.0471 µM) |  |  |  |  |
| O=c1[nH]c2cc(Cl)ccc2n1CCCN1CCN(C(c2ccccc2)c2ccccc2)CC1 [5-chloro-1-{3-[4-(diphenylmethyl)-1-piperazinyl]propyl}-1,3-dihydro-2H-benzimidazol-2-one] |  |  |  | 0.63 | 1.25 | 0.01 (≈ 0.0217 µM) |  |
| CSc1nc2ccccc2n1CCCN1CCN(C(c2ccccc2)c2ccccc2)CC1 [I-b: M=CH3S, R1=H, (CH2)3, R6=H, R7=H, 1-{3-[4-(diphenylmethyl)-1piperazinyl]propyl}-2-(methylthio)-1H-benzimidazole trihydrochloride.hydrate] | 1.25 | 1.25 | 0.16 |  |  |  |  |
| Cc1nc2ccccc2n1CCCCN1CCN(C(c2ccccc2)c2ccccc2)CC1 [I-b: M=CH3, R1=H, (CH2)4, R6=H, R7=H, 1-{4-[4-(diphenylmethyl)-1-piperazinyl]butyl}-2-methyl-1H-benzimidazole] | 1.25 | 1.25 | 0.005 (≈ 0.0114 µM) |  |  |  |  |
| O=c1[nH]c2ccccc2n1CCN1CCC(OC(c2ccc(F)cc2)c2ccc(F)cc2)CC1 [1-[2-{4-[bis(4-fluorophenyl)methoxy]-1-piperidinyl}ethyl]-1,3-dihydro-2H-benzimidazol-2-one hydrochloride.hemihydrate] |  |  |  |  |  |  | ED50 ([1]; Table I-d): 0.31 mg/kg; minimal effective dose ([2]; Table I-d): 0.31 mg/kg; IC50 [3, 6]: 0.0025 mg/L |
| Cc1ccc(C(c2ccccc2)N2CCN(CCCn3c(=O)[nH]c4ccccc43)CC2)cc1 (stereo not drawn) [1,3-dihydro-1-[3-{4-[(4-methylphenyl)phenylmethyl]-1-piperazinyl}-propyl}-2H-benzimidazol-2-one] |  |  |  | < 2.5 | < 2.5 | 0.08 (≈ 0.182 µM) |  |
| c1ccc(C(OC2CCN(CCCn3cnc4ccccc43)CC2)c2ccccc2)cc1 [1-{3-[4-(diphenylmethoxy)-1-piperidinyl]propyl}-1H-benzimidazole] |  |  |  |  |  |  | ED50 ([1]; Table I-d): 0.16 mg/kg; minimal effective dose ([2]; Table I-d): 0.16 mg/kg; IC50 [3, 6]: 0.0025 mg/L (≈ 0.00587 µM) |
| O=c1[nH]c2ccccc2n1CCN1CCN(C(c2ccc(F)cc2)c2ccc(F)cc2)CC1 [1-[2-{4-[bis(4-fluorophenyl)methyl]-1-piperazinyl}ethyl]-1,3-dihydro-2H-benzimidazol-2-one hemihydrate] |  |  |  | 0.63 | 0.63 | 0.02 |  |
| O=c1[nH]c2ccccc2n1CCCCCCN1CCN(C(c2ccccc2)c2ccccc2)CC1 [I-a: L=H, R1=H, R2=H, (CH2)6, R6=H, R7=H, 1-{6-[4-(diphenylmethyl)-1-piperazinyl]hexyl}-1,3-dihydro-2H-benzimidazol-2-one] |  |  |  | 1.25 | 2.5 | 0.01 (≈ 0.0213 µM) |  |
| Cc1ccc2c(c1)[nH]c(=O)n2CCN1CCN(C(c2ccccc2)c2ccccc2)CC1 [1-{2-[4-(diphenylmethyl)-1-piperazinyl]ethyl}-1,3-dihydro-5-methyl-2H-benzimidazol-2-one] |  |  |  | 1.25 | 1.25 | 0.01 (≈ 0.0234 µM) |  |
| O=c1[nH]c2cc(C(F)(F)F)ccc2n1CCCN1CCN(C(c2ccccc2)c2ccccc2)CC1 [1-{3-[4-(diphenylmethyl)-1-piperazinyl]propyl}-1,3-dihydro-5-(trifluoromethyl)-2H-benzimidazol-2-one] |  |  |  | 0.31 | 0.31 | 0.02 (≈ 0.0404 µM) |  |
| O=c1[nH]c2ccccc2n1CCCCN1CCC(OC(c2ccccc2)c2ccccc2)CC1 [1-{4-[4-(diphenylmethoxy)-1-piperidinyl]butyl}-1,3-dihydro-2H-benzimidazol-2-one] |  |  |  |  |  |  | ED50 ([1]; Table I-d): 0.63 mg/kg; minimal effective dose ([2]; Table I-d): 0.31 mg/kg; IC50 [3, 6]: 0.005 mg/L (≈ 0.011 µM) |
| O=c1[nH]c2ccccc2n1CCCN1CCN(C(c2ccccc2)c2ccc(F)cc2)CC1 (stereo not drawn) [1-[3-{4-[α-(4-fluorophenyl)-α-phenylmethyl]-1-piperazinyl}propyl]-1,3-dihydro-2H-benzimidazol-2-one] |  |  |  | 0.31 | 0.31 | 0.01 (≈ 0.0225 µM) |  |
| O=c1[nH]c2cc(Cl)ccc2n1CCCN1CCN(C(c2ccc(F)cc2)c2ccc(F)cc2)CC1 [1-[3-{4-[bis(4-fluorophenyl)methyl]-1-piperazinyl}propyl]-5-chloro-1,3-dihydro-2H-benzimidazol-2-one] |  |  |  | 1.25 | 1.25 | 0.04 (≈ 0.0805 µM) |  |
| CC(CN1CCN(C(c2ccc(F)cc2)c2ccc(F)cc2)CC1)Cn1cnc2ccccc21 (stereo not drawn) [1-[3-{4-[bis(4-fluorophenyl)methyl]-1-piperazinyl}-2-methylpropyl]-1H-benzimidazole trihydrochloride.hemihydrate] | 0.63 | 1.25 | 0.02 |  |  |  |  |
| c1ccc(C(c2ccccc2)N2CCN(CCCn3cnc4ccccc43)CC2)cc1 [I-b: M=H, R1=H, (CH2)3, R6=H, R7=H] | 0.08 | 0.16 | 0.0025 (≈ 0.00609 µM) |  |  |  |  |
